# Assays:
# Conditions in all cases: incubation time: 72 h
# MDA-MB-453 [1] = assay: drug sensitivity score (DSS), CellTox Green (DSS (AUC-based score)); higher = stronger drug effect (viability inhibition or cytotoxicity); extreme values may be limits of the assay
# Method in brief: (§1)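 Breast cancer cell lines, seeded as 20 µl suspension, were incubated 72 h with compound in 384-well plates at 5 concentrations in 10-fold steps over a 10,000-fold range set for each compound. Fluorescence from CellTox Green was read at 485/520 nm before CellTiter-Glo luminescence, which was read after 10 min at room temperature. Every plate was normalised to 0.1 % DMSO and a positive kill control, and the drug sensitivity score was taken from the area under the fitted dose-response curve.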
# Hs578T = assay: as above
# Method in brief: as §1
# DU-4475 = assay: as above
# Method in brief: as §1
# HDQ-P1 = assay: as above
# Method in brief: as §1
# CAL-120 = assay: as above
# Method in brief: as §1
# MDA-MB-436 [2] = assay: as above
# Method in brief: as §1
# CAL-148 [3] = assay: as above
# Method in brief: as §1
# HCC1143 [4] = assay: as above
# Method in brief: as §1
# CAL-51 [5] = assay: as above
# Method in brief: as §1
# CAL-85-1 = assay: as above
# Method in brief: as §1
# MCF-10A = assay: as above
# Method in brief: as §1
# BT-549 [6] = assay: as above
# Method in brief: as §1
# MFM-223 = assay: as above
# Method in brief: as §1
# MDA-MB-231 [7] = assay: as above
# Method in brief: as §1
# HCC1937 [8] = assay: as above
# Method in brief: as §1
# HCC1599 [9] = assay: as above
# Method in brief: as §1
# MDA-MB-468 = assay: as above
# Method in brief: as §1
# BT-474 [10] = assay: as above
# Method in brief: as §1
# MDA-MB-453 [11] = assay: normalised viability (% of control), CellTiter-Blue; higher = more viable cells (about 100 = DMSO control)
# Method in brief: (§2)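 Breast cancer cell lines in 20 µl suspension were seeded onto 384-well plates pre-loaded with compound dissolved in 5 µl medium, then incubated 72 h. CellTiter-Blue reagent (2.5 µl) was added for 2 h at 37 °C and fluorescence read at 560/590 nm. Each plate was normalised to vehicle (100) and a positive kill control (0), with Z'-factor quality control. The value is normalised viability at one listed concentration of the series.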
# MDA-MB-436 [12] = assay: as above
# Method in brief: as §2
# CAL-148 [13] = assay: as above
# Method in brief: as §2
# HCC1143 [14] = assay: as above
# Method in brief: as §2
# CAL-51 [15] = assay: as above
# Method in brief: as §2
# BT-549 [16] = assay: as above
# Method in brief: as §2
# MDA-MB-231 [17] = assay: as above
# Method in brief: as §2
# HCC1937 [18] = assay: as above
# Method in brief: as §2
# HCC1599 [19] = assay: as above
# Method in brief: as §2
# BT-474 [20] = assay: as above
# Method in brief: as §2
SMILES,drug sensitivity score (MDA-MB-453 [1]),drug sensitivity score (Hs578T),drug sensitivity score (DU-4475),drug sensitivity score (HDQ-P1),drug sensitivity score (CAL-120),drug sensitivity score (MDA-MB-436 [2]),drug sensitivity score (CAL-148 [3]),drug sensitivity score (HCC1143 [4]),drug sensitivity score (CAL-51 [5]),drug sensitivity score (CAL-85-1),drug sensitivity score (MCF-10A),drug sensitivity score (BT-549 [6]),drug sensitivity score (MFM-223),drug sensitivity score (MDA-MB-231 [7]),drug sensitivity score (HCC1937 [8]),drug sensitivity score (HCC1599 [9]),drug sensitivity score (MDA-MB-468),drug sensitivity score (BT-474 [10]),normalised viability (MDA-MB-453 [11]; 3 nM),normalised viability (MDA-MB-436 [12]; 10 nM),normalised viability (CAL-148 [13]; 3 nM),normalised viability (HCC1143 [14]; 10 nM),normalised viability (CAL-51 [15]; 3 nM),normalised viability (BT-549 [16]; 10 nM),normalised viability (MDA-MB-231 [17]; 10 nM),normalised viability (HCC1937 [18]; 10 nM),normalised viability (HCC1599 [19]; 10 nM),normalised viability (BT-474 [20]; 10 nM),normalised viability (MDA-MB-453 [11]; 1.5 nM),normalised viability (MDA-MB-436 [12]; 5 nM),normalised viability (CAL-148 [13]; 1.5 nM),normalised viability (HCC1143 [14]; 5 nM),normalised viability (CAL-51 [15]; 1.5 nM),normalised viability (BT-549 [16]; 5 nM),normalised viability (MDA-MB-231 [17]; 5 nM),normalised viability (HCC1937 [18]; 5 nM),normalised viability (HCC1599 [19]; 5 nM),normalised viability (BT-474 [20]; 5 nM)
Nc1ncnc2c1c(COc1cccc(Cl)c1)nn2C1CCOCC1,0,0.27,0,0,0,0,0,0,0,0,0,0,0,0,0,0,0,0,,,,,,,,,,,,,,,,,,,,
COc1ccc(-c2ccc3c(N4CCOC[C@@H]4C)nc(N4CCOC[C@@H]4C)nc3n2)cc1CO [AZD8055],0,0,0,0,0,0,14.2,8.37,7.39,0.628,0,0,0,0,0,0,2.01,2.99,94.6%,98.3%,89.3%,100%,88.2%,92.5%,80.7%,77.2%,89.3%,108%,,,,,,,,,,
C[C@]12CC[C@H](O)CC1=CC[C@@H]1[C@@H]2CC[C@]2(C)C(c3cccnc3)=CC[C@@H]12 [Abiraterone],0,0,0,0,0,0,0,0,0,0,0,0,0,0,0,0,0,0,,,,,,,,,,,104%,101%,91.5%,67.2%,104%,99.7%,86.8%,110%,104%,116%
CN(C)CCN1C(=O)c2cccc3cc(N)cc(c23)C1=O [Amonafide],0,0,0,0,0,11.2,2.89,0,2.42,0,0,0,0,0,0,0,0,0,106%,111%,88.8%,83.6%,112%,84.9%,97.2%,91.8%,98.2%,114%,,,,,,,,,,
CC(C)(C#N)c1cc(Cn2cncn2)cc(C(C)(C)C#N)c1 [Anastrozole],0.209,,0,0,0,0,0,,0,0,0,0,0,0,0,0,0,0,104%,109%,93.3%,73.5%,112%,94%,96.3%,90.3%,98%,110%,,,,,,,,,,
CC(C)c1c(C(=O)Nc2ccccc2)c(-c2ccccc2)c(-c2ccc(F)cc2)n1CC[C@@H](O)C[C@@H](O)CC(=O)O [Atorvastatin],0.0639,4.71,0,0,1.49,0,0,0,13.9,0,8.07,0,0,13.1,0,0,0,0,,,,,,,,,,,,,,,,,,,,
Cn1c(=O)n(-c2ccc(C(C)(C)C#N)cc2)c2c3cc(-c4cnc5ccccc5c4)ccc3ncc21 [Dactolisib],0,0,0,0,0,0,11.7,0,0,2.63,0,0,2.01,0,7.09,0,0,0,,,,,,,,,,,,,,,,,,,,

# From the supplement of paper PMC4862054
